Test results reported in patent publication US8791132B2, “Compounds and methods for treatment of hypertension” (Medivation Technologies, Inc., priority 2011, dated 2014).
Where “and” joins values, the source holds several entries; their conditions need not be identical. Equal values may be shown once. Read-outs that look alike come from different tables or passages of the source. Values belong to the molecule of their own block, whether it stands above or below them.

What was measured:
[1] = molecular target: T1, human recombinant adrenergic α2A receptor (Homo sapiens, UniProt P08913); assay: Radioligand binding, adrenergic α2A ([3H]MK-912); settings: for Percentage inhibition of ligand binding, Adrenergic α2A (0.1 μM) / Percentage inhibition of ligand binding, Adrenergic α2A: 0.1 µM
T1 construct: expressed in transfected cells; host or cells: insect Sf9 cells
T1 sequence (P08913 1-465): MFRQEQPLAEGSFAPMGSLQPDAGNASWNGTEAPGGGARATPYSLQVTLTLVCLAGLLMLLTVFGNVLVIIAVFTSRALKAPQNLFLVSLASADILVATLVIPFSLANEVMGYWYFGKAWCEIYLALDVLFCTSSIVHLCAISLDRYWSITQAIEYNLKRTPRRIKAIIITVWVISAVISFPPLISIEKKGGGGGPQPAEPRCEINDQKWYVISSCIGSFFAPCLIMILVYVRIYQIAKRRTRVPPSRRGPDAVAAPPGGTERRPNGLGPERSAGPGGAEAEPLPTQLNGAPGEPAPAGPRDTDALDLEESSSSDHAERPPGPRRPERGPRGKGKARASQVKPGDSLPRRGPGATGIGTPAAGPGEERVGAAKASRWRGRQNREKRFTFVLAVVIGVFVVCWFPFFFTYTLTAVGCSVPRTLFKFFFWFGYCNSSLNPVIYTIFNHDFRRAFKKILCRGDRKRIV
How it was run: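 In 50 mM Tris-HCl (pH 7.4) containing 12.5 mM MgCl2 and 2 mM EDTA, Sf9-expressed receptor was exposed to test compound plus 1 nM [3H]MK-912 at 25 °C for 60 min. Specific binding, corrected using 10 μM WB-4101, was quantified by filtration and counting and expressed as percent inhibition.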

[2] = molecular target: T2, human recombinant adrenergic α2B receptor (Homo sapiens, UniProt P18089); assay: Radioligand binding, adrenergic α2B ([3H]Rauwolscine); settings: for Percentage inhibition of ligand binding, Adrenergic α2B (0.03 μM) / Percentage inhibition of ligand binding, Adrenergic α2B: 0.03 µM
T2 construct: expressed in transfected cells; host or cells: CHO-K1
T2 sequence (P18089 1-450): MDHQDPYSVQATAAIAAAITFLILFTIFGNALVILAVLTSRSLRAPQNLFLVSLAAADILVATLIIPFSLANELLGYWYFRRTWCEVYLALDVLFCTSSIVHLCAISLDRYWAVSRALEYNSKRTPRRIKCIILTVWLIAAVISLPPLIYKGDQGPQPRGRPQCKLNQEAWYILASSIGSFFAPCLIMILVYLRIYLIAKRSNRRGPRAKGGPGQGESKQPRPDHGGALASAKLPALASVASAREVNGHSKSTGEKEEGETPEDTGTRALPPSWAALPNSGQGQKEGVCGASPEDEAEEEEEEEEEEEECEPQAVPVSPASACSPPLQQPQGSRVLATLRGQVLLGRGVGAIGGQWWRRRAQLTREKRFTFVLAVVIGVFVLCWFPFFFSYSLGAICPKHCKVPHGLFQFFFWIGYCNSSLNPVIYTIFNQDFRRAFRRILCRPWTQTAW
How it was run: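 Receptor expressed in CHO-K1 cells, assayed in 50 mM Tris-HCl pH 7.4 with 12.5 mM MgCl2, 1 mM EDTA and 0.2% BSA. Compounds were incubated with 2.5 nM [3H]Rauwolscine for 60 min at 25° C; 10 μM Prazosin defined non-specific binding. Filter counting gave percent inhibition of specific binding.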

[3] = molecular target: T3, rat adrenergic α1B receptor (Rattus norvegicus, UniProt P15823); assay: Radioligand binding, adrenergic α1B ([3H]Prazosin); settings: for Percentage inhibition of ligand binding, Adrenergic α1B (0.1 μM) / Percentage inhibition of ligand binding, Adrenergic α1B: 0.1 µM
T3 construct: rat adrenergic α1B receptor obtained from Wistar Rat liver; from tissue; host or cells: Wistar rat liver
T3 sequence (P15823 1-515): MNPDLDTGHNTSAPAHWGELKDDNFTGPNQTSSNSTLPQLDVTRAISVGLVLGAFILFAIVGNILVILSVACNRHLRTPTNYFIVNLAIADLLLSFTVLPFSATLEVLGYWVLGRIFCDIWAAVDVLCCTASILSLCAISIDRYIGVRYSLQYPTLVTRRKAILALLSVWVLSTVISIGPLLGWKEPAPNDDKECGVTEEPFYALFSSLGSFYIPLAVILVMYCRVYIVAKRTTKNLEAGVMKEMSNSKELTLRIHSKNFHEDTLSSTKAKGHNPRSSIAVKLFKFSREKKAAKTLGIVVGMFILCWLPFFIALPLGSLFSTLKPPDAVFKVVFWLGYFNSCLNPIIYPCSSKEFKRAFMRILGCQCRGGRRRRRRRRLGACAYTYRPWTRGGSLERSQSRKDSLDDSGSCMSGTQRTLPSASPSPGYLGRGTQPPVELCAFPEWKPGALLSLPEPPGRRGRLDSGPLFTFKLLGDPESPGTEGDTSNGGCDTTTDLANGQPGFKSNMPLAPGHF
How it was run: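 Filter binding with Wistar rat liver α1B preparation: test compound plus 0.25 nM [3H]prazosin, 1 h at 25° C in modified Tris-HCl buffer pH 7.4.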

[4] = compound at 0.1 μM, [3H]MK-912, repeat datapoints each shown
[5] = compound at 0.03 μM, [3H]Rauwolscine, repeat datapoints each shown
[6] = compound at 0.1 μM, [3H]Prazosin, repeat datapoints each shown
[7] = compound at 0.1 μM, [3H]MK-912, repeat assays, each datapoint shown, read-out: Percentage inhibition of ligand binding, Adrenergic α2A
[8] = compound at 0.03 μM, [3H]Rauwolscine, repeat assays, each datapoint shown, read-out: Percentage inhibition of ligand binding, Adrenergic α2B
[9] = compound at 0.1 μM, [3H]Prazosin, repeat assays, each datapoint shown
[10] = compound at 0.1 μM, [3H]MK-912, repeat assays, each datapoint shown
[11] = compound at 0.03 μM, [3H]Rauwolscine, repeat assays, each datapoint shown
[12] = compound at 0.1 μM, [3H]Prazosin, repeat assays, each datapoint shown, read-out: Percentage inhibition of ligand binding, Adrenergic α1B
[13] = read-out: Percentage inhibition of ligand binding, Adrenergic α2A (0.1 μM), compound at 0.1 μM, [3H]MK-912, repeat datapoints each shown
[14] = read-out: Percentage inhibition of ligand binding, Adrenergic α2B (0.03 μM), compound at 0.03 μM, [3H]Rauwolscine, repeat datapoints each shown
[15] = read-out: Percentage inhibition of ligand binding, Adrenergic α1B (0.1 μM), compound at 0.1 μM, [3H]Prazosin, repeat datapoints each shown

Percentage inhibition of ligand binding, Adrenergic α2A (0.1 μM) [1, 4]: 57%
Percentage inhibition of ligand binding, Adrenergic α2B (0.03 μM) [2, 5]: 98%
Percentage inhibition of ligand binding, Adrenergic α1B (0.1 μM) [3, 6]: 95%
SMILES: Cc1ccc2c(c1)c1c(n2CC(OC(=O)CCC(=O)O)c2ccncc2)CCN2CCCC12 (single isomer, unassigned) [V-18b, 4-(2-(10-methyl-2,3,5,6-tetrahydro-1H-indolizino[7,8-b]indol-7(11cH)-yl)-1-(pyridin-4-yl)ethoxy)-4-oxobutanoic acid]

inhibition at 0.1 µM ([1]; 0.1 μM compound, read-out: Percentage inhibition of ligand binding, Adrenergic α2A): 1%
inhibition at 0.03 µM ([2]; 0.03 μM compound, read-out: Percentage inhibition of ligand binding, Adrenergic α2B): -9%
inhibition at 0.1 µM ([3]; 0.1 μM compound, read-out: Percentage inhibition of ligand binding, Adrenergic α1B): -11%
SMILES: CN1CCc2c(c3cccnc3n2CC(O)c2ccncc2)C1 (centres unmarked) [II-78]

inhibition at 0.1 µM [1, 7]: 50%
inhibition at 0.03 µM [2, 8]: 54%
Percentage inhibition of ligand binding, Adrenergic α1B [3, 9]: 55%
SMILES: Cc1ccc2c(c1)c1c(n2CC(O)c2ccc(F)cc2)CN(C)CC1 (single isomer, unassigned) [18a, 2-(2,6-dimethyl-1,2,3,4-tetrahydro-β-carbolin-9-yl)-1-(4-fluoro-phenyl)-ethanol]

Percentage inhibition of ligand binding, Adrenergic α2A [1, 10]: 20%
Percentage inhibition of ligand binding, Adrenergic α2B [2, 11]: 82%
Percentage inhibition of ligand binding, Adrenergic α1B [3, 9]: 43%
SMILES: COc1ccc(C(O)Cn2c3c(c4cc(C)ccc42)CN(C)CC3)cn1 (centres unmarked) [compound 51, 2-(2,8-dimethyl-1,2,3,4-tetrahydro-pyrido[4,3-b]indol-5-yl)-1-(6-methoxy-pyridin-3-yl)-ethanol]

inhibition at 0.1 µM [1, 7]: 18%
Percentage inhibition of ligand binding, Adrenergic α2B [2, 11]: 15%
inhibition at 0.1 µM [3, 12]: 11%
SMILES: CN1CCc2c(c3cc(C(F)(F)F)ccc3n2CC(O)c2cccnc2)C1 (single isomer, unassigned) [59a]

inhibition at 0.1 µM [1, 13]: 6%
inhibition at 0.03 µM [2, 14]: 43%
inhibition at 0.1 µM [3, 15]: 57%
SMILES: Cc1ccc2c(c1)c1c(n2CC(N)c2ccc(C(N)=O)nc2)CCN(C)C1 (centres unmarked) [compound 157, 5-[1-amino-2-(2,8-dimethyl-1,2,3,4-tetrahydro-pyrido[4,3-b]indol-5-yl)-ethyl]-pyridine-2-carboxylic acid amide]

inhibition at 0.1 µM [1, 7]: 16%
Percentage inhibition of ligand binding, Adrenergic α2B [2, 11]: 26% and 30%
inhibition at 0.1 µM ([2]; compound at 0.1 μM, [3H]Rauwolscine, repeat assays, each datapoint shown, read-out: Percentage inhibition of ligand binding, Adrenergic α2B): 62%
Ki ([2]; read-out: Ki α2B): 0.0274 µM
inhibition at 0.03 µM ([3]; compound at 0.03 μM, [3H]Prazosin, repeat assays, each datapoint shown, read-out: Percentage inhibition of ligand binding, Adrenergic α1B): 18%
SMILES: Cc1ccc2c(c1)c1c(n2CC(O)c2ccncc2)CCN(C)C1 (single isomer, unassigned) [3a]

inhibition at 0.1 µM [1, 7]: 8%
Percentage inhibition of ligand binding, Adrenergic α2B [2, 11]: 34%
inhibition at 0.1 µM [3, 12]: 30%
SMILES: OC(Cn1c2c(c3cc(Cl)ccc31)CNCC2)c1ccncc1 (single isomer, unassigned) [10a, 2-(8-chloro-1,2,3,4-tetrahydro-pyrido[4,3-b]indol-5-yl)-1-pyridin-4-yl-ethanol]

inhibition at 0.1 µM [1, 13]: 13%
inhibition at 0.03 µM [2, 14]: 52%
inhibition at 0.1 µM [3, 15]: 57%
SMILES: Cc1ccc2c(c1)c1c(n2CC(O)c2ccncc2C)CCN(C)C1 (centres unmarked) [133a]

Percentage inhibition of ligand binding, Adrenergic α2A (0.1 μM) [1, 4]: 41%
Percentage inhibition of ligand binding, Adrenergic α2B (0.03 μM) [2, 5]: 97%
Percentage inhibition of ligand binding, Adrenergic α1B (0.1 μM) [3, 6]: 43%
SMILES: CC(O)(Cn1c2c(c3cc(Cl)ccc31)C1CCCN1CC2)c1cccnc1 (centres unmarked) [II-130, 1-(10-chloro-2,3,5,6-tetrahydro-1H-indolizino[7,8-b]indol-7(11cH)-yl)-2-(pyridin-3-yl)propan-2-ol]

inhibition at 0.1 µM [1, 13]: 57%
inhibition at 0.03 µM [2, 14]: 6%
inhibition at 0.1 µM [3, 15]: -5%
SMILES: Cc1ccc(CCn2c3c(c4c(F)ccc(F)c42)CN(C)CC3)cn1 [II-250]

Percentage inhibition of ligand binding, Adrenergic α2A (0.1 μM) [1, 4]: 1%
Percentage inhibition of ligand binding, Adrenergic α2B (0.03 μM) [2, 5]: 14%
Percentage inhibition of ligand binding, Adrenergic α1B (0.1 μM) [3, 6]: 6%
SMILES: Cc1ccc2c(c1)c1c(n2CC(C)(O)c2cccnc2)CCN(C)C1C (single isomer, unassigned) [II-152c]

Percentage inhibition of ligand binding, Adrenergic α2A (0.1 μM) [1, 4]: −1%
Percentage inhibition of ligand binding, Adrenergic α2B (0.03 μM) [2, 5]: 44%
Percentage inhibition of ligand binding, Adrenergic α1B (0.1 μM) [3, 6]: 65%
SMILES: Cc1cnc2c(c1)c1c(n2CCc2cnc(C)nc2)CCN2CCCC12 (single isomer, unassigned) [IV-93b]

inhibition at 0.1 µM [1, 7]: 1%
Percentage inhibition of ligand binding, Adrenergic α2B [2, 11]: 28%
inhibition at 0.1 µM [3, 12]: 24%
SMILES: Cc1ccc2c(c1)c1c(n2CC(O)c2ccncc2)CCNC1 (single isomer, unassigned) [39b, 2-(8-methyl-1,2,3,4-tetrahydro-pyrido[4,3-b]indol-5-yl)-1-pyridin-4-yl-ethanol]

inhibition at 0.1 µM [1, 13]: 10%
inhibition at 0.03 µM [2, 14]: 10%
inhibition at 0.1 µM [3, 15]: 2%
SMILES: Cc1ccc2c(c1)c1c(n2CC(C(N)=O)c2ccncc2)CCN(C)C1 (centres unmarked) [II-263]

Percentage inhibition of ligand binding, Adrenergic α2A [1, 10]: 7%
Percentage inhibition of ligand binding, Adrenergic α2B [2, 11]: 19%
Percentage inhibition of ligand binding, Adrenergic α1B [3, 9]: 8%
SMILES: Cc1ccc2c(c1)c1c(n2CC(O)c2cc[n+]([O-])cc2)CCN(C)C1 (centres unmarked) [69b]

Percentage inhibition of ligand binding, Adrenergic α2A (0.1 μM) [1, 4]: 6%
Percentage inhibition of ligand binding, Adrenergic α2B (0.03 μM) [2, 5]: 72%
Percentage inhibition of ligand binding, Adrenergic α1B (0.1 μM) [3, 6]: 89%
SMILES: Cc1cnc2c(c1)c1c(n2CC(O)c2ccncc2)CCN2CCCC12 (single isomer, unassigned) [IV-209a, 2-(9-Methyl-1,2,3,4,5,10c-hexahydro-3a,6,7-triaza-cyclopenta[c]fluoren-6-yl)-1-pyridin-4-yl-ethanol]

Percentage inhibition of ligand binding, Adrenergic α2A [1, 10]: 4%
Percentage inhibition of ligand binding, Adrenergic α2B [2, 11]: 53%
Percentage inhibition of ligand binding, Adrenergic α1B [3, 9]: 6%
SMILES: Cc1ccc2c(c1)c1c(n2CC(O)c2ccncc2)CCN2CCCCC12 (single isomer, unassigned) [47c]

Percentage inhibition of ligand binding, Adrenergic α2A [1, 10]: 8%
Percentage inhibition of ligand binding, Adrenergic α2B [2, 11]: 33%
inhibition at 0.1 µM [3, 12]: 14%
SMILES: CCC1c2c(c3cc(C)ccc3n2CC(O)c2ccncc2)C2CCN1C2 (single isomer, unassigned) [36a]

Percentage inhibition of ligand binding, Adrenergic α2A [1, 10]: 3%
inhibition at 0.03 µM [2, 8]: 29%
inhibition at 0.1 µM [3, 12]: 15%
SMILES: CC(O)(Cn1c2c(c3cc(Cl)ccc31)CNCC2)c1ccncn1 (single isomer, unassigned) [42a, 1-(8-chloro-1,2,3,4-tetrahydro-pyrido[4,3-b]indol-5-yl)-2-pyrimidin-4-yl-propan-2-ol]
